The values below come from patent publication US20120270884A1, “Methods of Treating Aneurysmal Dilatation, Blood Vessel Wall Weakness and Specifically Abdominal Aortic and Thoracic Aneurysm Using Matrix Metalloprotease-2 Inhibitors” (SYMPHONY EVOLUTION, INC., priority 2009, published 2012).

For assay [1], the target named is TACE (TNF-alpha converting enzyme, ADAM-17) (Homo sapiens, UniProt P78536). The assay can be described thus: In vitro metalloprotease inhibition, TACE. It is filed as biochemical. The text has this: (§1) Blank cells indicate lack of data only.
TACE (TNF-alpha converting enzyme, ADAM-17), sequence (P78536 215-824): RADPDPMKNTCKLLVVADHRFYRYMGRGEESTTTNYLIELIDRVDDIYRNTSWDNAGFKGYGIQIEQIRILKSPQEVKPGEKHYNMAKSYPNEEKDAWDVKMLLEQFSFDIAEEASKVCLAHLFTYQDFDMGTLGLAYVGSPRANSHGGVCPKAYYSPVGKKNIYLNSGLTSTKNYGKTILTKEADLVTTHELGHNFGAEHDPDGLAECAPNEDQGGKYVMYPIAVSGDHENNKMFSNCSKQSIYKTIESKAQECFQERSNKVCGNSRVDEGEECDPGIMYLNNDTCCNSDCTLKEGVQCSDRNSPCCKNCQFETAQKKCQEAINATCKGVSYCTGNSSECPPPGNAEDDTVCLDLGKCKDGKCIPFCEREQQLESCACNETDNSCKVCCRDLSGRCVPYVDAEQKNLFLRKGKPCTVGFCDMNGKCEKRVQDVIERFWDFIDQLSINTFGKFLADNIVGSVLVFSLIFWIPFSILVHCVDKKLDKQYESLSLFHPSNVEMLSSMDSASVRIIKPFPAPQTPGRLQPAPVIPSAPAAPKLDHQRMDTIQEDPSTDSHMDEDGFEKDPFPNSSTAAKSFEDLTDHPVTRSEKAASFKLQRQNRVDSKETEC
Assay [2] concerns abdominal aorta of C57/B16 mice after elastase perfusion. Kind of assay: Elastase-perfusion mouse model of AAA. The format is in vivo. The text has this: All mice used in the experiment were commercially obtained C57/B16 inbred strain mice. Throughout the experimental course, mice were allowed free access to food and water. Animals were housed in a controlled animal facility, and all mouse care and treatment occurred under approved protocols.
A total of 89 C57/B16 mice were subjected to transient perfusion of the abdominal aorta according to a protocol known in the art. Briefly, after sedation and preparation, the aorta was approached through a midline laparotomy. The infrarenal aorta was dissected and the diameter was measured under physiologic blood pressure. A segment of infrarenal aorta was isolated and a 5 minute perfusion of this segment was performed through an arteriotomy at 100 mmHg with a solution containing type I porcine pancreatic elastase (PPE 0.16 U/mL). All of the experiments were performed with a single PPE preparation derived from the same commercial source and lot.
Following aortic perfusion the arteriotomy was repaired, the laparotomy was closed and the animal was allowed to completely recover before returning to its standard housing.
Following aortic perfusion, animals were placed into one of 5 treatment groups. […] Three different doses of the agent were used, 50 mg/kg/day (n=17), 125 mg/kg/day (n=17), and 250 mg/kg/day (n=18). There were two mice in each group which died following aortic perfusion, and all others were available for analysis. Control animals (n=18) were similarly treated with daily gavage of the Cremophor diluent only. Of these mice, 16 survived the two weeks following aortic perfusion and underwent final aortic measurements and harvest. […] In this group, 4 mice died prior to the two week harvest, and all others were used in the analysis of aneurysm growth.
Two weeks following elastase perfusion, the mice were again anesthetized; the laparotomy incision was reopened and the final aortic diameter was measured in vivo prior to sacrifice. The animals were humanely sacrificed, and circulating blood and the entire perfused segment of aorta was harvested for RNA extraction, protein extraction or histology.
The aortas from several mice from each experimental group were perfusion fixed with 10% neutral-buffered formalin, removed, and placed in additional formalin for a minimum of 24 hours prior to processing for paraffin embedding. Following paraffin embedding, aortic specimens were cut into 5 μm sections and mounted on glass slides. Each specimen was stained with hematoxylin and eosin to evaluate inflammatory cell infiltration and Accustain® Elastic Stain kit to assess the degree of elastin degradation. Photomicrographs of serial sections were obtained using an Olympus BX60 light microscope equipped with CV12 video capture camera. […]

Assay [3] addresses T1, MMP-1 (Fibroblast collagenase) (Homo sapiens, UniProt P03956).
T1 sequence (P03956 100-469): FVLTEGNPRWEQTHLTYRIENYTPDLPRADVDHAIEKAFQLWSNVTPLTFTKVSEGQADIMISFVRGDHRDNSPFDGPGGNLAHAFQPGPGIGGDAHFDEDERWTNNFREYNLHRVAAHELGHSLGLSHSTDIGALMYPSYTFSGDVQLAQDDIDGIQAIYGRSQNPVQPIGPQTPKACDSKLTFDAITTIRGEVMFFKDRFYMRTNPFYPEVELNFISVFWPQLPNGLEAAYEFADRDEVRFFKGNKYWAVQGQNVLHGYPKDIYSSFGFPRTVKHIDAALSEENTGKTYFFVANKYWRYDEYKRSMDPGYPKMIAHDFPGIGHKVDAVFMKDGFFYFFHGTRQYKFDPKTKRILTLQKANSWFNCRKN
Kind of assay: In vitro metalloprotease inhibition, MMP-1. It is filed as biochemical.
Text: as §1

The target in assay [4] is MMP-3 (Stromelysin-1) (Homo sapiens, UniProt P08254). The assay can be described thus: In vitro metalloprotease inhibition, MMP-3. The format is biochemical.
MMP-3 (Stromelysin-1), sequence (P08254 100-477, species assumed): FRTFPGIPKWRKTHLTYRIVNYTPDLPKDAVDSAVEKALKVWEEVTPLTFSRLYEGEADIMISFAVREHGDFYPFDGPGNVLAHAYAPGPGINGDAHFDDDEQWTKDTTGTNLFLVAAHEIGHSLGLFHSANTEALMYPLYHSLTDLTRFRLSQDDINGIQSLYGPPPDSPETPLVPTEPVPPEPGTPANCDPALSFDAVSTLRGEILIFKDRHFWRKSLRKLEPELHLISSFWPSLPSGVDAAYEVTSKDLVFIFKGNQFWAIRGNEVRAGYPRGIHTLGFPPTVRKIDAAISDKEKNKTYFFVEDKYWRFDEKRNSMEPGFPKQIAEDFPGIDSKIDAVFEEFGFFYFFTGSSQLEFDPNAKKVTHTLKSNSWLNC
Text: as §1

Assay [5] concerns the target T2, MMP-2 (72 kDa gelatinase, gelatinase A) (Homo sapiens, UniProt P08253).
T2 sequence (P08253 110-660): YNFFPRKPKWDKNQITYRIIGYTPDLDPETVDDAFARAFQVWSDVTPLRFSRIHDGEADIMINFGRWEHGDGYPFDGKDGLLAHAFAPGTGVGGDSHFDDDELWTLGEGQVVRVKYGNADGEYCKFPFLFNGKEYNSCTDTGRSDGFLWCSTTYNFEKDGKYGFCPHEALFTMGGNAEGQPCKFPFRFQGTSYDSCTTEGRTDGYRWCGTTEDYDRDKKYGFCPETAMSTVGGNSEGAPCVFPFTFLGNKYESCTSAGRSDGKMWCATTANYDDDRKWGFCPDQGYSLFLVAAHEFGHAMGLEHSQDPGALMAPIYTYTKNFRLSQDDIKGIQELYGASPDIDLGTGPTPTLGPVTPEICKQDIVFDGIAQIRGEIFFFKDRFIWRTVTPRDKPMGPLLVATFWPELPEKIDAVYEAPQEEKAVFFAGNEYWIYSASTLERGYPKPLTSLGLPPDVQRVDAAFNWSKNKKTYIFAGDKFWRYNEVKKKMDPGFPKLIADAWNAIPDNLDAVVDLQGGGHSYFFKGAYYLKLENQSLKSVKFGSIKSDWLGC
Kind of assay: In vitro metalloprotease inhibition, MMP-2. The format is biochemical.

For assay [6], the target named is MMP-13 (collagenase-3) (Homo sapiens, UniProt P45452). The assay can be described thus: In vitro metalloprotease inhibition, MMP-13. It is filed as biochemical.
Assay [7] deals with MMP-9 (92 kDa gelatinase, gelatinase B) (Homo sapiens, UniProt P14780). Kind of assay: In vitro metalloprotease inhibition, MMP-9. The format is biochemical.
MMP-9 (92 kDa gelatinase, gelatinase B), sequence (P14780 94-707, species assumed): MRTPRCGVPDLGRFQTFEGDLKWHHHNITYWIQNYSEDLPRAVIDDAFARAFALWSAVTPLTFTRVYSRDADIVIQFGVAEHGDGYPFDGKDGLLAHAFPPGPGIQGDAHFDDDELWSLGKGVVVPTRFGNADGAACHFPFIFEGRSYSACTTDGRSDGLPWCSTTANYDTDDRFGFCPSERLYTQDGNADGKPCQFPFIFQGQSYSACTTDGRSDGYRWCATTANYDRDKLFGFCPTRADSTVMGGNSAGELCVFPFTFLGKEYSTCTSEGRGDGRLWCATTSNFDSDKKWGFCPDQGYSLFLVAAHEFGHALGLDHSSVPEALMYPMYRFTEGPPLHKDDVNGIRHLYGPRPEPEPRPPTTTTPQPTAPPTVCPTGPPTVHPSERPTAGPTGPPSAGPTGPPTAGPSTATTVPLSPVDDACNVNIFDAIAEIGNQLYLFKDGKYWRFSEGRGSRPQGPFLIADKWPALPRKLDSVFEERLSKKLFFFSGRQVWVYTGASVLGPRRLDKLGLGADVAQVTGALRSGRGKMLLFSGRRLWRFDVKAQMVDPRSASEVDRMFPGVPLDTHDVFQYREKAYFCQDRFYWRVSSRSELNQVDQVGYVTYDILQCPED
Assay [8] concerns the target MMP-8 (Neutrophil collagenase) (Homo sapiens, UniProt P22894). Kind of assay: In vitro metalloprotease inhibition, MMP-8. The format is biochemical.
The target in assay [9] is T3, ADAM-10 (UniProt O14672).
T3 sequence (O14672 1-748): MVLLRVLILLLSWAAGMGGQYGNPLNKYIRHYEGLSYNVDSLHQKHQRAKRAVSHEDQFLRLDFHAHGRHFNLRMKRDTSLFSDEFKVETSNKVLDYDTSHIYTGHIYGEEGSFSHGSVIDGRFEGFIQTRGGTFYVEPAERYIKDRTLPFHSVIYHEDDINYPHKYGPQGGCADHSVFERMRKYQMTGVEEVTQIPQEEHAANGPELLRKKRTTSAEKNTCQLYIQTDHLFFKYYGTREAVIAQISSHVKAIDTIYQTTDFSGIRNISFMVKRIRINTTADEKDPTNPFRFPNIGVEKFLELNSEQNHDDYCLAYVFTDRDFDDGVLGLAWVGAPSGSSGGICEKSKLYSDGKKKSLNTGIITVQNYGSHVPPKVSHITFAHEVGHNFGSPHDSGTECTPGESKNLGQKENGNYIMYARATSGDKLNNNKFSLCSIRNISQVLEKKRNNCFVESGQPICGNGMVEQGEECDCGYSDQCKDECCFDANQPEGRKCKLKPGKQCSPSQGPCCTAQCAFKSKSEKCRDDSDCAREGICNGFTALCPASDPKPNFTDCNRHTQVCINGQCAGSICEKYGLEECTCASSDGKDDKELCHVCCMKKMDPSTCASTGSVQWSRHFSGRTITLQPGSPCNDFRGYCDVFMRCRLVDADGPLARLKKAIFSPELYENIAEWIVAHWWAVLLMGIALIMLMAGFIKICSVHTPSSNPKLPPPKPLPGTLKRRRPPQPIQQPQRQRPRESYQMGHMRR
The assay can be described thus: ADAM-10 enzyme assay, cleavage of fluorogenic 10-residue peptide. The settings on record: read-out: IC50 ADAM-10; in vitro.
Experimental: mADAM-10 or hADAM-10 activity was measured as the ability to cleave a 10-residue peptide (DABCYL-Leu-Leu-Ala-Gln-Lys-*-Leu-Arg-Ser-Ser-Arg-EDANS). […] Enzyme was diluted to a final active concentration of 5 nM in Buffer A (50 mM HEPES 8.0, 100 mM NaCl, 1 mM CaCl2 and 0.01% NP-40). Serial dilutions for compounds were performed ranging from 100 μM to 0.5 nM using a Beckman Biomek 2000 in polypropylene plates (Greiner). 20 μl of enzyme solution was added to 10 μl of compound in buffer A, and allowed to incubate for 15 min in 384 well black, Greiner, microtiter plates (#781076). 20 μl of substrate (12.5 μM in Buffer A) was then added, resulting in final reaction conditions of 2 nM ADAM-10, 5 μM substrate, and compound concentrations ranging from 20 uM to 0.1 nM. The reaction was incubated for 2 hr at RT, and fluorescence was measured at Ex355, Em460 on a Wallac Victor 2 fluorescence reader. […] This reaction was incubated for 16 hr at RT and fluorescence was read using identical conditions.

MMP-8 (Neutrophil collagenase), sequence (P22894 101-467, species assumed): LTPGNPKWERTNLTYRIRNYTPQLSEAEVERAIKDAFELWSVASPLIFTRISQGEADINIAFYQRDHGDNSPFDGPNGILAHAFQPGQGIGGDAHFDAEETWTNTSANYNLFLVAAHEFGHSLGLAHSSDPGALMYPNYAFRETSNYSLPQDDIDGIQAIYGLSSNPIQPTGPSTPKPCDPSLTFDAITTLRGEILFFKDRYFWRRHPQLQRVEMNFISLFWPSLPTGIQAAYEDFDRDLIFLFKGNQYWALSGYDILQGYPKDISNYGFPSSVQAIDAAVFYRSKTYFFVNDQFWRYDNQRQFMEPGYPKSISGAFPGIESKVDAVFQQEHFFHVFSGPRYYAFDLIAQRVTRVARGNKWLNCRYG

For the compound `COCCOC(=O)N1CCN(S(=O)(=O)c2cc(F)c(Oc3ccc(Cl)cc3)c(F)c2)[C@@H](C(=O)NO)C1` [Entry 15], the IC50 (as a rule, the midpoint of a concentration-inhibition curve) in assay [1] was 50 to 1000 nM; in assay [3], 1000 to 20000 nM; in assay [4] it was 50 to 1000 nM. Further, the “animals which did not develop aneurysms (% ΔAD not greater than 100%)” value in assay [2] (mice, 250 mg/kg/day daily gavage, 2 weeks, not statistically different than controls) came to 12%. The “aortic histology: degree of elastin damage and inflammatory cell inflammation” value in assay [2] (mice, 50, 125, 250 mg/kg/day daily gavage, aorta at harvest, H&E and VVG stain) is on record as “inversely correlated with the dose of the agent administered”. Moreover, the “aortic diameters at harvest versus control animals” value in assay [2] (mice, all doses (50, 125, 250 mg/kg/day), 2 weeks) is recorded as “significantly smaller than control animals”. Besides, the “maximal diameters (% ΔAD) of all animals” value in [2] (mice, low and intermediate dose groups (50 and 125 mg/kg/day), 2 weeks) is given as “greater than 100%”.

As for `O=C(NO)[C@H]1CN(C(=O)N2CCOCC2)CCN1S(=O)(=O)c1cc(F)c(Oc2ccc(Cl)cc2)c(F)c1` [Entry 30], the IC50 in [1] was 50 to 1000 nM; in [5], below 50 nM; in assay [6], below 50 nM; in assay [3], 1000 to 20000 nM; in assay [7], 50 to 1000 nM; in assay [8] it was below 50 nM. In [4], this compound came in with an IC50 of 50 to 1000 nM.

With `O=C(NO)[C@H]1CN(C(=O)C(=O)N2CCOCC2)CCN1S(=O)(=O)c1cc(F)c(Oc2ccc(Cl)cc2)c(F)c1` [Entry 31], the IC50 is 50 to 1000 nM in assay [1]; below 50 nM in assay [5]; below 50 nM in assay [6]; 1000 to 20000 nM in assay [3]; 50 to 1000 nM in assay [4].

As for `O=C(NO)[C@H]1CN(S(=O)(=O)Cc2ccncc2)CCN1S(=O)(=O)c1cc(F)c(Oc2ccc(Cl)cc2)c(F)c1` [Entry 34], the IC50 in [1] is below 50 nM; in assay [5], below 50 nM; in assay [6], below 50 nM; in [3], 1000 to 20000 nM; in assay [4], 50 to 1000 nM.

On to `O=C(NO)[C@H]1CN(S(=O)(=O)NC(=O)N2CCCCC2)CCN1S(=O)(=O)c1cc(F)c(Oc2ccc(Cl)cc2)c(F)c1` [Entry 37], for which the IC50 in assay [1] is 50 to 1000 nM; in [5], below 50 nM; in [6], below 50 nM; in assay [3], 1000 to 20000 nM; in [4], below 50 nM.

`O=C(NO)[C@H]1CN(S(=O)(=O)NC(=O)N2CCOCC2)CCN1S(=O)(=O)c1cc(F)c(Oc2ccc(Cl)cc2)c(F)c1` [Entry 38]: the IC50 in assay [1] is 50 to 1000 nM; in assay [5] it was below 50 nM; in assay [6] it was below 50 nM; in [3], 1000 to 20000 nM; in assay [4], below 50 nM.

Regarding `O=C(NO)[C@H]1CN(C(=O)c2cc(F)c(O)c(F)c2)CCN1S(=O)(=O)c1cc(F)c(Oc2ccc(Cl)cc2)c(F)c1` [Entry 41], the IC50 in [5] is below 50 nM; in [9], below 50 nM; in assay [6], below 50 nM; in assay [3], 1000 to 20000 nM; in assay [4], below 50 nM.

`O=C(NO)[C@H]1CN(S(=O)(=O)c2cccnc2O)CCN1S(=O)(=O)c1cc(F)c(Oc2ccc(Cl)cc2)c(F)c1` [Entry 45]: the IC50 in assay [1] is 50 to 1000 nM; in assay [5], below 50 nM; in assay [6], below 50 nM; in [3] it was 1000 to 20000 nM; in assay [4], 50 to 1000 nM.

With `CN(C)CCS(=O)(=O)N1CCN(S(=O)(=O)c2cc(F)c(Oc3ccc(Cl)cc3)c(F)c2)[C@@H](C(=O)NO)C1` [Entry 54], the IC50 in assay [1] is below 50 nM; in assay [5], below 50 nM; in assay [6], below 50 nM; in assay [3] it was 50 to 1000 nM; in assay [4] it was below 50 nM.

For the compound `O=C(NO)[C@H]1CN(C(=O)c2cccnc2)CCN1S(=O)(=O)c1cc(F)c(Oc2ccc(Cl)cc2)c(F)c1` [Entry 59], the IC50 is 50 to 1000 nM in [1]; below 50 nM in assay [5]; below 50 nM in assay [6]; 1000 to 20000 nM in assay [3]; 50 to 1000 nM in assay [4].
